Assay results as given in patent USRE37355E, “6-dimethylaminomethyl-1-phenyl-cyclohexane compounds as pharmaceutical active ingredients” (priority 1995, dated 2001).

Test system: mice
Experiment: Testing for analgesia using the tail flick test on mice
Assay type: in vivo, NMRI mice
Settings: Mus musculus, 20 min; NMRI mice, intravenous, 20 minutes after administration; Litchfield and Wilcoxon; read-out: ED50 (tail flick test, analgesia)
Source text: Testing for analgesia using the tail flick test on mice
The analgesic effectiveness of the compounds according to the invention was investigated in the thermal radiation (tail flick) test on mice using the method of D'Amour and Smith (J. Pharm. Exp. Ther. 72, 74-79 (1941). […]. The animals were placed in a special test cage and the bases of their tails were exposed to the focused thermal radiation from an electric lamp (Rhema Analgesiemeter Type 3010). The lamp intensity was adjusted so that the time from switching on the lamp until the sudden twitching away of the tail (latency of pain) was 3-5 seconds for untreated animals. Before the administration of a compound according to the invention, the animals were pre-tested twice within five minutes and the average value of these measurements was calculated as the pre-test average. The pain measurement was made 20, 40 and 60 minutes after intravenous administration. […]. In order to determine the dosage-dependency, the respective compound according to the invention was applied in doses increasing logarithmically by a factor of 3-5, which included the threshold and the maximum effective dose each time. The ED50 values were determined from the number of analgesic animals by the method of Litchfield and Wilcoxon (J. Pharm. Exp. Ther. 96, 99-113, (1949)). Calculation of the ED50 was made at the effective maximum 20 minutes after intraveneous adminstration of the substance.

Q: With COc1cccc([C@@]2(O)C[C@H](O)CC[C@@H]2CN(C)C)c1.Cl (racemic) [(17), (1RS,3RS,6RS)-6-dimethylaminomethyl-1-(3-methoxy-phenyl)-cyclohexane-1,3-diol hydrochloride] as the molecule, how does the ED50 read?
A: 5.54 mg/kg

Q: CN(C)C[C@H]1CCCC[C@]1(F)c1cccc(O)c1.Cl [(+1), (+)-(1R,2R)-3-(2-dimethylaminomethyl-1-fluoro-cyclohexyl)-phenol hydrochloride] was tested. Which ED50 did it give?
A: 0.64 mg/kg

Q: For CN(C)C[C@H]1CCCC[C@]1(Cl)c1cccc(O)c1.Cl [(+5), (+)-(1R,2R)-3-(1-chloro-2-dimethylaminomethyl-cyclohexyl)-phenol hydrochloride], which ED50 is on record?
A: 2.78 mg/kg

Q: For COc1cccc([C@@H]2CCCC[C@@H]2CN(C)C)c1.Cl [(+6), (+)-(1S,2R)-[2-(3-methoxy-phenyl)-cyclohexylmethyl]-dimethylamine hydrochloride], which ED50 is on record?
A: 10.7 mg/kg

Q: How did the ED50 turn out when CN(C)C[C@@H]1CCCC[C@@H]1c1cccc(O)c1.Cl [(+7), (+)-(1S,2R)-3-(2-dimethylaminomethyl-cyclohexyl)-phenol hydrochloride] was run?
A: 1.13 mg/kg

Q: COc1cccc([C@@]2(O)C[C@H](O)CC[C@@H]2CN(C)C)c1.Cl [(+17), (+)-(1R,3R,6R)-6dimethylaminomethyl-1-(3-methoxy-phenyl)-cyclohexane-1,3-diol hydrochloride] was tested. Which ED50 did it give?
A: 3.93 mg/kg

Q: How did the ED50 turn out when CN(C)C[C@H]1CC[C@@H](O)C[C@]1(O)c1cccc(O)c1.Cl [(+21), (+)-(1R,3R,6R)-6-dimethylaminomethyl-1-(3-hydroxy-phenyl)-cyclohexane-1,3-diol hydrochloride] was run?
A: 7.34 mg/kg

Q: How did the ED50 turn out when CN(C)C[C@@H]1CCCC[C@@]1(F)c1cccc(O)c1.Cl [(-1), (-)-(1S,2S)-3-(2-dimethylaminomethyl-1-fluoro-cyclohexyl)-phenol hydrochloride] was run?
A: 2.28 mg/kg

Q: With CN(C)C[C@H]1CCCC[C@H]1c1cccc(O)c1.Cl [(-7), (-)-(1R,2S)-3-(2-dimethylaminomethyl-cyclohexyl)-phenol hydrochloride] as the molecule, how does the ED50 read?
A: 5.9 mg/kg

Q: How did the ED50 turn out when CN(C)C[C@H]1CCCC[C@H]1c1cccc(OC(=O)C(C)(C)C)c1.Cl [(-8), (-)-(1R,2S)-2,2-dimethylpropionic acid-3-(2-dimethylaminomethyl-cyclohexyl)-phenyl ester hydrochloride] was run?
A: 4.61 mg/kg

Q: How did the ED50 turn out when CC(=O)Oc1ccccc1C(=O)Oc1cccc([C@@H]2CCCC[C@@H]2CN(C)C)c1.Cl [(-10), (-)-(1R,2S)-2-acetoxy-benzoic acid-3-(2-dimethylaminomethyl-cyclohexyl)-phenyl ester hydrochloride] was run?
A: 8.71 mg/kg

Q: How did the ED50 turn out when CC(C)COC(=O)Oc1cccc([C@@H]2CCCC[C@@H]2CN(C)C)c1.Cl [(-11), (-)-(1R,2S)-carbonic acid-[3-(2-dimethylaminomethyl-cyclohexyl)-phenyl]-ester-isobutyl ester hydrochloride] was run?
A: 5.01 mg/kg

Same assay, conditions: Mus musculus, iv, 20 min, read-out: ED50 (tail flick test, analgesia)

Q: With COc1cccc([C@@]2(O)CCCC[C@@H]2CN(C)C)c1.Cl (racemic) [Tramadol, (1RS,2RS)-2[(dimethylamino)methyl]-1-(3-methoxyphenyl)cyclohexanol hydrochloride, reference compound] as the molecule, how does the ED50 read?
A: 13.6 mg/kg
